Experimental data reported in patent EP4763971A1, “MULTI-ORGANS-ON-A-CHIP WITH INVERTED MICROWEIR STRUCTURE AS MULTI-CELL CULTURE PLATFORM AND USE THEREOF” (Humanase, priority 2023, dated 2025).
Read-outs that look alike come from different tables or passages of the source.

What was measured:
[1] = tested on: cardiomyocytes (Cardiosight-S); conditions: control heart-on-a-chip, 9,000 µM cyclophosphamide, compared to cardiomyocytes not treated with cyclophosphamide
From the text: (§1) Next, cardiomyocytes (Cardiosight-S) differentiated from human pluripotent stem cells (hPSCs) from NEXEL were mixed with a hydrogel such as collagen, and then injected using a pipette into the cell inlet connected to the inner cell chamber of the multi-organ-on-a-chip prepared in Example 1, thereby injecting cardiomyocytes into the inner cell chamber.
(§2) Next, the hydrogel comprised in the injected cardiomyocyte mixture was cured to fix the cardiomyocytes within the cell chamber. Depending on the type of hydrogel, curing is performed using different curing methods. In the case of collagen, curing was performed via temperature change by placing in an incubator for at least 1 hour, and then cardiomyocytes were continuously cultured in the incubator.
The culture was performed by supplying a culture medium comprising a mixture of Cardiosight-S Media supplemented with supplement (50X) and Minimum Essential Media Eagle (MEM, high-glucose, gibco) supplemented with 25 mM HEPES (4-(2-hydroxyethyl)-1-piperazineethanesulfonic acid, gibco), 10% (v/v) FBS, P/S (100 Uml-1 penicillin/100 Uml-1 streptomycin, Sigma-Aldrich Co., MO) at a certain ratio. […]

[2] = tested on: cardiomyocytes (Cardiosight-S)
Method: as §1
Next, 1 x 10^5 cultured hepatocytes (HepG2) were injected using a pipette into each cell inlet connected to the two outer cell chambers of the multi-organ-on-a-chip prepared in Example 1, thereby injecting hepatocytes into the two outer cell chambers.
as §2
Further, hepatocytes were fixed and cultured using the same method. […]

O=P1(N(CCCl)CCCl)NCCCO1 (stereo not drawn) [cyclophosphamide]
beating rate of the cardiomyocytes increased [1]: 31.76 ± 0.59% | effect on the beating rate of cardiomyocytes ([2]; liver-heart-on-a-chip compared to the control heart-on-a-chip, 0, 1,000, 5,000, or 9,000 µM (FIG. 8)): more significant effect | beating rate of the cardiomyocytes increased ([2]; liver-heart-on-a-chip, 9,000 µM cyclophosphamide, compared to cardiomyocytes not treated with cyclophosphamide): 177.9 ± 2.56%
